For 20 compounds, IC50 results are on record in patent US11420970B1 (NOVARTIS AG, priority 2019, dated 2022).

The first experiment concerns cellular H3K36me2 level in multiple myeloma cell line KMS11 (t(4;14)+). The experiment is described as follows: H3K36me2 cellular ELISA assay in KMS11-Par line. To be noted: Homo sapiens, KMS-11; KMS11-Par line, ELISA, 72 hours; read-out: H3K36me2 ELISA in KMS11-Par. The class given is cell-based. Here is the method: H3K36Me2 Cellular ELISA Assay in KMS11-Par Line
An ELISA (enzyme-linked immunosorbent assay) based assay was used to test the ability of candidate compound to reduce cellular H3K36me2 level in multiple myeloma cell line KMS11 (t(4;14)+). KMS11 (Horizon Discovery Ltd.) cells are maintained in RPM11640 media with 12.5% FBS and 50 U/ml Penicillin-Streptomycin. For assay compound treatment, single cell suspension was prepared in Opti-MEM supplemented with B-27 and N2 supplement (Invitrogen 11058-021, 17504-044, 17502-048) for ELISA and in maintenance media for cellTiter Glo (CTG) viability assay. One day prior to cell treatment, 1,250 KMS11 cells were seeded into 384-well Greiner CellStar TC plate (Greiner #781086) at the final volume of 30 μL/well.
Cells were treated with tested compounds at the desired concentration for 72 hours. Crude histone lysate was extracted by 0.4M HCl following neutralization by 0.5M Sodium phosphate, dibasic (Na2HPO4), pH ˜12.5. Equal amount of histone lysate was loaded to Corning 384-well high biding plate (Corning #3577, black) for H3K36m2 and to Thermo 384-well high binding Nunc plate (Thermo #460372, white) for total H3.
Histone bound plates were washed and blocked with 5% BSA. […] The abundance of H3K36me2 and total H3 was measured by Chemiluminesce on a plate reader. Cell viability was monitored on a parallel seeded plate with CellTiter-Glo reagent (Promega #G7573).
(An ELISA detects its analyte on a solid surface through an enzyme-linked reagent.)
As to `Nc1nccc2c1ncn2Cc1cc(-c2ccc(F)c(F)c2)ncc1N1CCC[C@](N)(c2cccc(C(F)F)n2)C1` [Example 260, (R)-1-((5-(3-amino-3-(6-(difluoromethyl)pyridin-2-yl)piperidin-1-yl)-2-(3,4-difluorophenyl)pyridin-4-yl)methyl)-1H-imidazo[4,5-c]pyridin-4-amine], the IC50 worked out at 1520 nM.

A further experiment deals with NSD2 [1-1365] (Homo sapiens (Human), UniProt O96028). As to the kind of experiment: LC-MS/MS-based NSD2 enzymatic assay (SAH production). It counts as biochemical. To be noted: NSD2 biochemical activity, class symbols; read-out: NSD2 IC50. How it is done: LC-MS/MS-Based NSD2 Enzymatic Assay
NSD2 [1-1365], sequence (O96028 whole entry): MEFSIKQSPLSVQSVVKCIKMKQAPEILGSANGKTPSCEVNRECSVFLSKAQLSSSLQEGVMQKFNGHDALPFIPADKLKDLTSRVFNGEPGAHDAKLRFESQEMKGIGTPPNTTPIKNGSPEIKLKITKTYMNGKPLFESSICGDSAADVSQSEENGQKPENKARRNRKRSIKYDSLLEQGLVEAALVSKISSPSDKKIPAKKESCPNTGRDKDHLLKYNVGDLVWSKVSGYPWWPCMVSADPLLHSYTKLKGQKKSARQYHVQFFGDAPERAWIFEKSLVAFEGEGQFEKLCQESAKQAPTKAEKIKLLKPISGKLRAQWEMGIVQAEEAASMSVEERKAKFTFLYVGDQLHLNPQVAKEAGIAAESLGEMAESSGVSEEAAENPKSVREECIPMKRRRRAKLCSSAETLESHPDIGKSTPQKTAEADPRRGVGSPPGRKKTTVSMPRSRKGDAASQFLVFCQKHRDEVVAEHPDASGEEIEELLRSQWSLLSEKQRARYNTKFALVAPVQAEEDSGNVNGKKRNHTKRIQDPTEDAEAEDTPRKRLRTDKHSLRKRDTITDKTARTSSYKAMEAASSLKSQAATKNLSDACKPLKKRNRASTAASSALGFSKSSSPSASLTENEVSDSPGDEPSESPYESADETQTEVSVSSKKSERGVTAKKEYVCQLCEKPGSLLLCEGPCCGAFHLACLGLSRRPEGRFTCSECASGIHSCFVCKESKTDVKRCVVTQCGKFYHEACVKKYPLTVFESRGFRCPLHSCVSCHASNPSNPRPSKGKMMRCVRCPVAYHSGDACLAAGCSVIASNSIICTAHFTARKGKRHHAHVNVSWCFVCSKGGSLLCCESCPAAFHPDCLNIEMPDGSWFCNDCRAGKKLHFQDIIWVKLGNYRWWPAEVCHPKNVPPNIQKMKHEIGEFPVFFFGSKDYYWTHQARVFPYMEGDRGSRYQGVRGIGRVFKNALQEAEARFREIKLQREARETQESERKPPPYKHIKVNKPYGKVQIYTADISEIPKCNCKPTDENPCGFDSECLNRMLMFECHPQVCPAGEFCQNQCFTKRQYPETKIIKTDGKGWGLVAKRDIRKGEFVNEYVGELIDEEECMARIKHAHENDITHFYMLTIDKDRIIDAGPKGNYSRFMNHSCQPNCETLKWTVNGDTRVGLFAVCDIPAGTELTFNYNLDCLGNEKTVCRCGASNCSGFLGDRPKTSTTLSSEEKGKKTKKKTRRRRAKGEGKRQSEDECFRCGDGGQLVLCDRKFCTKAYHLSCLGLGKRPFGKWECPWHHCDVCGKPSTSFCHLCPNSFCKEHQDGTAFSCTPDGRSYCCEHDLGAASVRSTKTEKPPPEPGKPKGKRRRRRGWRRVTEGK
This assay employed LC-MS/MS technology to monitor the SAH production from the NSD2 enzymatic reaction. The enzymatic reaction was performed in white proxiplate plus 384-well microplate (Perkin Elmer). The reaction mixture (10 μL) were composed of 8 nM NSD2 [1-1365], […] SAM (USB, 10601) and 400 nM nucleosome (purified from mouse liver) in reaction buffer (20 mM Tris-HCl, pH at 8.0, 0.01% Tween 20, 10 mM MgCl2, 50 mM NaCl, 1 mM DTT, 1 mM TCEP (pH7.5)). After 90 min incubation at room temperature, 3 μL quenching solution containing 2.5% TFA with 320 nM d4-SAH was added to stop the reaction.
For the inhibition assay, compound solutions were transferred into the wells by Mosquito™ (TTP LabTech). The inhibition assays were carried out by preincubating various concentrations of the inhibitor with 5 uL reaction mixture containing 16 nM NSD2 [1-1365] and 2 uM SAM (USB, 10601) in reaction buffer. After 20 min preincubation, 5 uL solution containing 800 nM nucleosome (purified from mouse liver) in reaction buffer was added to initiate the reaction. The reaction was stopped by 3 μL quenching solution containing 2.5% TFA with 320 nM d4-SAH after 90 min.
The SAH production from the enzymatic assays were monitored by LC-MS/MS on an API 4000 triple quadrupole mass spec with Turbolon Spray (Applied Biosystem) coupled with Prominenece UFLC(Shimazu). Liquid chromatography was performed on a Chromolith FastGradient HPLC column (RP-18e, 25-2 mm, from Merck) at a flow rate of 0.8 ml/min. The column was connected directly to the turbo ion electrospray operating in the positive-ion mode. Mobile phase A is 0.1% FA and 2% methanol in water and mobile phase B is 0.1% FA in ACN. Injection volume was 3 μl and the autosampler was kept at 4 degree. SAH and d4-SAH were simultaneously monitored. Data were acquired and processed by Analyst software.
To quantify the formed SAH, d4-SAH was added as internal standard (IS). A series of SAH (Sigma, A9384) solution at varying concentration (1-500 nM in reaction buffer) was mixed with quenching solution mentioned above. Then LC-MS/MS was carried out on API 4000 LC/MS/MS system to detect both SAH and d4-SAH. The plot of SAH peak area/IS peak area vs SAH concentration was used to generate the normalization factor of SAH. The SAH production from real enzymatic reaction was derived from the standard curve of SAH. The down-limit of our system for the detection of SAH is around 1-2 nM, and the linear range can reach up to 500 nM.
For the compound `CC1CCCN1C(=O)C1(N)CCCN(c2cnc(-c3ccc(F)c(F)c3)cc2Cn2cnc3c(N)ncnc32)C1` (stereo not drawn) [Example 88, (3-amino-1-(4-((6-amino-9H-purin-9-yl)methyl)-6-(3,4-difluorophenyl)pyridin-3-yl)piperidin-3-yl)(2-methylpyrrolidin-1-yl)methanone], the IC50 lay in the range of 10 to 1000 nM.

Take `Cc1cc(C(F)F)ccc1-c1cc(Cn2cnc3c(N)ncnc32)c(N2CCC[C@](N)([C@H](O)C(F)F)C2)cn1` [Example 140, (S)-1-((R)-3-amino-1-(4-((6-amino-9H-purin-9-yl)methyl)-6-(4-(difluoromethyl)-2-methylphenyl)pyridin-3-yl)piperidin-3-yl)-2,2-difluoroethan-1-ol]: the IC50 is 10 to 1000 nM. Same read-out and setting: under `COC(=O)C[C@@]1(N)CCCN(c2cnc(-c3cccc(F)c3)cc2Cn2cnc3c(N)ncnc32)C1` [Example 73, methyl (S)-2-(3-amino-1-(4-((6-amino-9H-purin-9-yl)methyl)-6-(3-fluorophenyl)pyridin-3-yl)piperidin-3-yl)acetate] stands 10 to 1000 nM; under `Cn1ncc2cc(-c3cc(Cn4cnc5c(N)ncnc54)c(N4CCC[C@](N)([C@H](O)C(F)F)C4)cn3)c(F)cc21` [Example 143, (S)-1-((R)-3-amino-1-(4-((6-amino-9H-purin-9-yl)methyl)-6-(6-fluoro-1-methyl-1H-indazol-5-yl)pyridin-3-yl)piperidin-3-yl)-2,2-difluoroethan-1-ol], 10 to 1000 nM.

`COC[C@@]1(N)CCCN(c2cnc(-c3ccc(F)c(Cl)c3)cc2Cn2cnc3c(N)ncnc32)C1` [Example 28, (R)-9-((5-(3-amino-3-(methoxymethyl)piperidin-1-yl)-2-(3-chloro-4-fluorophenyl)pyridin-4-yl)methyl)-9H-purin-6-amine]: the IC50 lay in the range of 1 to 10 nM.

As to `Cc1cc(C(F)F)c(F)cc1-c1cc(Cn2cnc3c(N)ncnc32)c(N2CCC[C@](N)([C@@H](O)C(F)F)C2)cn1` [Example 129, (R)-1-((R)-3-amino-1-(4-((6-amino-9H-purin-9-yl)methyl)-6-(4-(difluoromethyl)-5-fluoro-2-methylphenyl)pyridin-3-yl)piperidin-3-yl)-2,2-difluoroethan-1-ol], the IC50 lay within 1 to 10 nM. On the same count and under the same terms, the figure for `COc1c(-c2ccc(F)c(F)c2)ncc(N2CCC[C@](N)([C@H](O)C(F)F)C2)c1Cn1cnc2c(N)ncnc21` [Example 118, (S)-1-((R)-3-amino-1-(4-((6-amino-9H-purin-9-yl)methyl)-6-(3,4-difluorophenyl)-5-methoxypyridin-3-yl)piperidin-3-yl)-2,2-difluoroethan-1-ol] is 1 to 10 nM.

Staying with this experiment, now noted: read-out: NSD2 IC50.
As for `Nc1nccc2c1ncn2Cc1cc(-c2ccc(F)c(F)c2)ncc1N1CCC[C@](N)(c2cccc(C(F)F)n2)C1` [Example 260, (R)-1-((5-(3-amino-3-(6-(difluoromethyl)pyridin-2-yl)piperidin-1-yl)-2-(3,4-difluorophenyl)pyridin-4-yl)methyl)-1H-imidazo[4,5-c]pyridin-4-amine], the IC50 lay in the range of 10 to 1000 nM. `Nc1ncnc2c1ncn2Cc1cc(-c2ccc(F)c(F)c2)ncc1N1CCC[C@@H](N)[C@H]1[C@@H](O)C(F)(F)F` [Example 316, (R)-1-((2S,3R)-3-amino-1-(4-((6-amino-9H-purin-9-yl)methyl)-6-(3,4-difluorophenyl)pyridin-3-yl)piperidin-2-yl)-2,2,2-trifluoroethan-1-ol]: the IC50 is above 1000 nM. On the same count and under the same terms, the figure for `CCc1cncc([C@@]2(N)CCCN(c3cnc(-c4ccc(F)cc4)cc3Cn3cnc4c(N)ncnc43)C2)n1` [Example 250, (R)-9-((5-(3-amino-3-(6-ethylpyrazin-2-yl)piperidin-1-yl)-2-(4-fluorophenyl)pyridin-4-yl)methyl)-9H-purin-6-amine] is 10 to 1000 nM; for `CNC(=O)[C@@H]1[C@H](N)CCCN1c1cnc(-c2ccc(F)c(F)c2)cc1Cn1cnc2c(N)ncnc21` [Example 315, (2S,3R)-3-amino-1-(4-((6-amino-9H-purin-9-yl)methyl)-6-(3,4-difluorophenyl)pyridin-3-yl)-N-methylpiperidine-2-carboxamide] it is above 1000 nM.

As for `Nc1ncnc2c1ncn2Cc1cc(-c2ccc(F)c(F)c2)ncc1N1CCCC2(COCCN2)C1` (stereo not drawn) [Example 321, 9-((2-(3,4-difluorophenyl)-5-(4-oxa-1,8-diazaspiro[5.5]undecan-8-yl)pyridin-4-yl)methyl)-9H-purin-6-amine], the IC50 is above 1000 nM.

Regarding `Nc1ncnc2c1ncn2Cc1cc(-c2ccc(F)c(F)c2)ncc1N1CCC[C@@H](N)[C@H]1C(=O)O` [Example 319], the IC50 is above 1000 nM.

In the case of `Nc1ncnc2c1ncn2Cc1cc(-c2ccc3c(c2)CCO3)ncc1N1CCC[C@](N)(c2cccc(Cl)n2)C1` [Example 185, (R)-9-((5-(3-amino-3-(6-chloropyridin-2-yl)piperidin-1-yl)-2-(2,3-dihydrobenzofuran-5-yl)pyridin-4-yl)methyl)-9H-purin-6-amine], the IC50 is 10 to 1000 nM. Still for that read-out and setting: under `CCn1ccc([C@@]2(N)CCCN(c3cnc(C4CC4)cc3Cn3cnc4c(N)nccc43)C2)n1` [Example 276, (R)-1-((5-(3-amino-3-(1-ethyl-1H-pyrazo1-3-yl)piperidin-1-yl)-2-cyclopropylpyridin-4-yl)methyl)-1H-imidazo[4,5-c]pyridin-4-amine] stands 10 to 1000 nM. With `Nc1ncnc2c1ncn2Cc1cc(-c2ccc3ccnn3c2)ncc1N1CCCC(N)(c2cccc(Cl)n2)C1` (stereo not drawn) [Example 222, 9-((5-(3-amino-3-(6-chloropyridin-2-yl)piperidin-1-yl)-2-(pyrazolo[1,5-a]pyridin-6-yl)pyridin-4-yl)methyl)-9H-purin-6-amine], the IC50 lay in the range of 10 to 1000 nM. Consider `NC(=O)C[C@@H]1[C@H](N)CCCN1c1cnc(-c2ccc(F)c(F)c2)cc1Cn1cnc2c(N)ncnc21` [Example 320, 2-((2R,3R)-3-amino-1-(4-((6-amino-9H-purin-9-yl)methyl)-6-(3,4-difluorophenyl)pyridin-3-yl)piperidin-2-yl)acetamide], for which the IC50 is above 1000 nM. As to `Cn1cnc2ccc(-c3cc(Cn4cnc5c(N)ncnc54)c(N4CCCC(N)(c5cccc(Cl)n5)C4)cn3)cc21` (stereo not drawn) [Example 220, 9-((5-(3-amino-3-(6-chloropyridin-2-yl)piperidin-1-yl)-2-(1-methyl-1H-benzo[d]imidazol-6-yl)pyridin-4-yl)methyl)-9H-purin-6-amine], the IC50 lay within 10 to 1000 nM. On the same count and under the same terms, under `Nc1ncnc2c1ncn2Cc1cc(-c2ccc3nccn3c2)ncc1N1CCCC(N)(c2cccc(Cl)n2)C1` (stereo not drawn) [Example 210, 9-((5-(3-amino-3-(6-chloropyridin-2-yl)piperidin-1-yl)-2-(imidazo[1,2-a]pyridin-6-yl)pyridin-4-yl)methyl)-9H-purin-6-amine] stands 10 to 1000 nM; under `Nc1ncnc2c1ncn2Cc1cc(-c2ccc(F)c(F)c2)ncc1N1CCCC(N)C1=O` (stereo not drawn) [Example 324, 3-amino-1-(4-((6-amino-9H-purin-9-yl)methyl)-6-(3,4-difluorophenyl)pyridin-3-yl)piperidin-2-one], above 1000 nM.
